Assay results reported in article PMC4311240, “Rationally Designed Peptidomimetic Modulators of Aβ Toxicity in Alzheimer's Disease” (Scientific Reports, 2015).
Non-standard residues stand in square brackets, D forms with d. Residues, ends and D or L forms follow the SMILES beside them. *: point of attachment. Acetyl(thymin-1-yl) = Cc1cn(CC(=O)*)c(=O)[nH]c1=O; Sar = CNCC(=O)O

Key:
[1] = Serum stability assay; type: in vitro ADME; details: 37°C; for half-life at 50 μM: n = 3; for serum half-life compared to P1: human blood serum, 50 μM; for remaining at 24 h, 50 μM: n = 3, read-out: peptide intact after 24 h in serum
Method: The impact of N-terminal modification (P2 and P3) and Sr (N-methylglycine) substitution (P4 and P5) in P1 were investigated for their proteolytic stability towards blood plasma proteases. The assay involved the incubation of peptides (50 μM) with blood serum at 37°C for a period of 24 h and assessing the amount of intact peptides at different time points (0, 3, 6, 12 and 24 h) using RP-HPLC. […] Remarkably, P4 and P5 were very stable towards blood plasma proteases in comparison to the other peptides (P1, P2 and P3). […] Proteolytic enzymes generally recognize the specific amide bond between the natural amino acids and cleave them. […] On the other hand, P4 and P5 with an unnatural amino acid (Sr: N-methylglycine) in alternate positions were not recognized by the blood plasma proteases, resulting in their high blood plasma protease stability.
Figure 6 Serum stability of inhibitors. Inhibitors (50 μM) (P1-P5)were incubated in human blood serum (HBS) and were analyzed at different time points over a duration of 24 h to determine the percentage of intact inhibitor. […] Each experiment was repeated three times (n = 3). Error bars represent the standard deviation (SD) of the […] measurement.
Human blood serum (HBS) was used to determine serum stability of the inhibitors. The HBS was centrifuged to remove the lipid component, and the supernatant was incubated at 37°C. 50 Μm of each inhibitor (P1, P2, P3, P4 and P5) was incubated in HBS and then 40 μL triplicate aliquots were removed at 0, 1, 3, 6, 10, 16, and 24 h. Each serum sample was quenched with 40 μL of 6 M urea and incubated at 4°C for 10 min. Then, each serum sample was quenched with 40 μL of trichloroacetic acid (20%) and incubated for another 10 min at 4°C to precipitate the serum proteins. The samples were centrifuged for 10 min, and […] of the supernatant was analyzed on RP-HPLC using a linear gradient of solvent B (0.3 mL/min flow rate). The control samples containing equivalent amounts of inhibitors in PBS buffer were subjected to the same treatment procedure. The percentage recovery of inhibitors was detected by integration at 254 nm[45].

[2] = test system: trypsin; assay: Protease stability assay, trypsin; type: in vitro ADME; details: 100 mM NH4HCO3 buffer pH 8, 50 μM, 37°C; for stability towards trypsin: 24 h, RP-HPLC; for remaining at 24 h, 50 μM: RP-HPLC at 254 nm, triplicates, read-out: peptidomimetic intact after 24 h with trypsin
Method: (§1) Enzymes trypsin and pepsin are well-known to cleave the C-terminal of lysine and amide bond involving aromatic amino acids, respectively. Peptides were incubated with both the enzymes at 37°C for 24 h, and the amount of the residual intact peptide was monitored in each case at different time points (0, 3, 6, 12 and 24 h) using RP-HPLC. […] Overall, the stability assays with blood plasma and proteolytic enzymes led to similar conclusions and confirmed the stability, order P5>P4≫P3≈P2>P1.
(§2) Preliminary stability assays were performed using the enzymes pepsin and trypsin. For all assays, peptides were incubated with the enzyme at 37°C for 24 h. All digestion assay data were analyzed by RP-HPLC. Trypsin and pepsin stocks were prepared in 100 mM ammonium bicarbonate (NH4HCO3) buffer (pH 8) and 100 mM formic acid buffer (pH 2), respectively. All the peptides/peptidomimetics (P1, P2, P3, P4 and P5) were incubated with trypsin and pepsin enzymes in 100 mM NH4HCO3 buffer (pH 8) and formic acid buffer (pH 2), respectively, at 37°C. The trypsin reactions were halted with 0.05% formic acid, and the pepsin reactions were halted with 100 mM NH4HCO3. Then the samples were analyzed by RP-HPLC using a linear gradient of solvent B (0.3 mL/min flow rate); similar data points were collected at various time points between 0 and 24 h (1 h, 3 h, 6 h, 12 h and 24 h) during incubation and analyzed in triplicates. The percentages of recovered peptide/peptidomimetics were detected by integration at 254 nm[46].
(§3) Figure S6. Stability towards protease enzymes pepsin and trypsin. P1, P2, P3, P4 and P5 ([…]) were incubated in with enzymes pepsin a and trypsin b in 100 mM formic acid buffer (pH 2) and 100 mM NH4HCO3 buffer (pH 8) respectively. Percentage of intact peptide in each case was monitored at different time points for a duration of 24 h. P1, P2 and P3 degraded with time, […]
(§4) (1 picture or pasted object on this page, not shown here)

[3] = biological target: T1, Aβ42 (Homo sapiens, UniProt P05067); assay: ThT fluorescence inhibition assay of Aβ42 fibrillization; type: biochemical; details: for growth phase of Aβ42 fibrillization, time-dependent ThT assay / inhibition efficiency, time-dependent ThT assay: 1:2, 37°C, n = 3; for growth phase of Aβ42 fibrillization, time-dependent ThT assay: normalized fluorescence at 485 nm
T1 construct: Aβ42 peptide (0.25 mg) (Calbiochem, Merck) was dissolved in hexafluoro-2-propanol; purchased Calbiochem, Merck
T1 sequence (P05067 672-713 limits assumed): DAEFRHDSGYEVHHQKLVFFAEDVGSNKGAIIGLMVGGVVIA
Method: (§5) ThT assay has been widely used to monitor the transformation of Aβ42 monomers to fibrillar aggregates. We employed ThT assay to evaluate the ability of our peptidomimetic candidates to either prevent fibril assembly (inhibition) or to break down preformed fibrils of Aβ42 (dissolution). For the inhibition assay all the peptidomimetics (P2, P3, P4 and P5) along with control peptide P1 were added at 0 h of the experiment, whereas for the aggregates reversal (dissolution) assay they were added to Aβ42 fibrillar aggregates grown for 2 days. Once they had been incubated together, Aβ42/inhibitors were analyzed using ThT by measuring the fluorescence changes. First, we performed concentration-dependent experiments where different ratios of P1, P2, P3, P4 and P5 were incubated with fixed concentrations of Aβ42 (20 μM) and its aggregates to study their effect on both inhibition and reversal assay, respectively. Experiments were performed at stoichiometric ratios (Aβ42/inhibitor) of 1:0.2, 1:1, and 1:2 with the fixed concentration of Aβ42 of 20 μM. […] However, the efficiencies of P4 and P5 were only marginally better in inhibition assay compared to reversal assay with a difference of about 15%.
(§6) Fluorescence spectral measurements were carried out using Perkin Elmer Model LS 55 fluorescence spectrophotometer. […] A ThT concentration of 5–10 µM was used for amyloid fibrillization and dissolution assay based on the Aβ42 fibrillar concentration.
(§7) Prior to the experiment, P1, P2, P3, P4 and P5 were dissolved in HFIP and were evaporated under a stream of dry nitrogen. The dried samples were re-suspended in 10 mM PBS buffer at pH 7.4. An aliquot of Aβ42 peptide was then added to the solution with or without one of the inhibitor P1, P2, P3, P4 and P5. The mixtures were vortexed for approximately 30 s and then incubated at 37°C for 2–3 days without shaking. The final concentration of Aβ42 in the mixture was 20 μΜ. For a dissolution experiment, Aβ42 was incubated alone for 2 days to allow fibrils to form. An aliquot of the formed fibrils in 10 mM PBS buffer was then added to the inhibitor peptidomimetics. The amount of fibrils remaining intact was assayed using that fluorescence, CD measurements and transmission electron microscopy as described below.

[4] = test system: pepsin; assay: Protease stability assay, pepsin; type: in vitro ADME; details: 100 mM formic acid buffer pH 2, 50 μM, 37°C; for stability towards pepsin: 24 h, RP-HPLC; for remaining at 24 h, 50 μM: RP-HPLC at 254 nm, triplicates, read-out: peptidomimetic intact after 24 h with pepsin
Method: as §1, §2, §3, §4

[5] = biological target: T2, Aβ42 fibrillar aggregates (Homo sapiens, UniProt P05067); assay: ThT fluorescence reversal (dissolution) assay of preformed Aβ42 fibrillar aggregates; type: biochemical; details: n = 3; for dissolution efficiency, fibril reversal assay (ThT): Aβ42 fibrillar aggregates grown for 2 days, 20 μM, 1:2 stoichiometry, day 6, 37°C; for dissolution efficiency, time-dependent reversal ThT assay: Aβ42 aggregates 20 μM, 1:2, 37°C
T2 construct: Aβ42 peptide (0.25 mg) (Calbiochem, Merck) was dissolved in hexafluoro-2-propanol; purchased Calbiochem, Merck
T2 sequence (P05067 672-713 limits assumed): as above
Method: as §5
Aβ42 peptide (0.25 mg) (Calbiochem, Merck) was dissolved in hexafluoro-2-propanol (HFIP, 0.2 mL) and incubated at room temperature for 1 h. HFIP was then removed by the flow of nitrogen and further dried under vacuum. HFIP-treated Aβ42 was then dissolved in 10 mM PBS buffer to a concentration of 200 μM at pH 7.4. The solution was incubated at 37°C for 48 h with constant shaking for fibril formation. The formation of Aβ42 fibrillar aggregates was confirmed by ThT fluorescence, CD measurements and electron microscopy. For oligomers, HFIP-treated Aβ42 dissolved in 10 mM PBS buffer and incubated at 4°C for 24 h[44].
as §6, §7

[6] = biological target: T1, Aβ42; assay: CD measurement, inhibition assay (β-sheet band at 218 nm); type: biochemical; details: read-out: reduction in CD intensity at 218 nm (β-sheet content), inhibition assay
From the text: (§8) To further validate our results, we performed CD studies. Aβ42 aggregates are predominantly made of β-sheet assembly, which can be assessed by CD measurements. […] In this assay, we monitored the intensity of negative CD band centered at 218 nm, characteristic of a β-sheet structure and a decrease in its intensity was correlated with a reduction in the toxic Aβ42 aggregates (supplementary Fig. S2). In these CD measurements, samples similar to ThT fluorescence assays were used to allow for direct comparison between the two experiments. In the case of inhibition assay, Aβ42 monomers were incubated with inhibitor candidates for 4 days at 37°C and then CD measurements were performed to evaluate the inhibition efficiency. […] In the reversal assay, Aβ42 aggregates were incubated with the inhibitor candidates for six days at 37°C and then, CD measurements were performed. CD data was in excellent agreement with the dissolution efficiency obtained in reversal assay experiments monitored by the ThT assay (Fig. 2). […] Overall, inhibition and dissolution efficiencies obtained in the ThT fluorescence assay and CD measurements were in good agreement.
(§9) The circular dichroic (CD) spectra were recorded using a Jasco J-815 spectrometer under nitrogen atmosphere. Peptides were dissolved in 10 mM PBS buffer at pH 7.4 at concentrations of 20 µM. A 10 mm path length was used for the measurements. Four to five scans were acquired from 200 to 300 nm.
as §7

[7] = biological target: T3, Aβ42 aggregates (Homo sapiens, UniProt P05067); assay: CD measurement, reversal assay (β-sheet band at 218 nm); type: biochemical; details: Aβ42 aggregates 20 μM, inhibitor 40 μM, six days at 37°C
T3 construct: Aβ42 peptide (0.25 mg) (Calbiochem, Merck) was dissolved in hexafluoro-2-propanol; purchased Calbiochem, Merck
T3 sequence (P05067 672-713 limits assumed): as above
From the text: as §8, §9, §7

[8] = human blood serum (centrifuged to remove lipid), 24 h, RP-HPLC at 254 nm
[9] = Aβ42 20 μM, Aβ42:inhibitor 1:2 (40 μM), inhibitor added at 0 h, four days at 37°C, 10 mM PBS pH 7.4, n = 3, read-out: inhibition efficiency (reduction in the fluorescence intensity of ThT)
[10] = Aβ42 20 μM, inhibitor 40 μM, 4 days at 37°C, vs untreated Aβ42

| Structure (SMILES) | half-life at 50 μM [1, 8] [h] | metabolised at 24 h, 50 μM ([1]; human blood serum (centrifuged to remove lipid), 24 h, RP-HPLC at 254 nm, n = 3, read-out: peptide degraded at 24 h in serum) [%] | stability towards trypsin [2] | inhibition at 40 µM [3, 9] [%] | stability towards pepsin [4] | dissolution efficiency, fibril reversal assay (ThT) [5] [%] | inhibition at 40 µM [6, 10] [%] | serum half-life compared to P1 [1] [times] | growth phase of Aβ42 fibrillization, time-dependent ThT assay ([3]; Aβ42 20 μM) [%] | dissolution efficiency, time-dependent reversal ThT assay [5] [%] | dissolution efficiency by CD, reversal assay [7] [%] | inhibition at 40 µM [6] [%] | inhibition at 40 µM ([3]; pH 7.4, read-out: inhibition efficiency (reduction in the fluorescence intensity of ThT)) [%] | remaining at 24 h, 50 μM [1, 8] [%] | remaining at 24 h, 50 μM [2] [%] | inhibition efficiency, time-dependent ThT assay ([3]; Aβ42 20 μM) [%] | remaining at 24 h, 50 μM [4] [%] |
| --- | --- | --- | --- | --- | --- | --- | --- | --- | --- | --- | --- | --- | --- | --- | --- | --- | --- |
| CC(C)C[C@H](NC(=O)[C@@H](N)CCCCN)C(=O)N[C@H](C(=O)N[C@@H](Cc1ccccc1)C(=O)N[C@@H](Cc1ccccc1)C(N)=O)C(C)C [P1, reference compound] | ~3 | 80 | less stable | 20 | less stable | 20 | – | – | – | – | – | – | – | – | – | – | – |
| Cc1cn(CC(=O)N[C@@H](CCCCN)C(=O)N[C@@H](CC(C)C)C(=O)N[C@H](C(=O)N[C@@H](Cc2ccccc2)C(=O)N[C@@H](Cc2ccccc2)C(N)=O)C(C)C)c(=O)[nH]c1=O [P2] | ~10 | – | less stable | 55 | less stable | 45 | > 50 | 3 | < 60 | 35 | 40 | – | – | – | – | – | – |
| CC(C)C[C@H](NC(=O)[C@H](CCCCN)NC(=O)CC1C(=O)NC(=O)NC1=O)C(=O)N[C@H](C(=O)N[C@@H](Cc1ccccc1)C(=O)N[C@@H](Cc1ccccc1)C(N)=O)C(C)C [P3] | ~10 | – | less stable | – | less stable | 34 | – | 3 | < 60 | 25 | 25 | ~30 | 40 | – | – | – | – |
| Cc1cn(CC(=O)N(C)CC(=O)N[C@@H](CC(C)C)C(=O)N(C)CC(=O)N[C@@H](Cc2ccccc2)C(=O)N(C)CC(=O)N[C@@H](C)C(N)=O)c(=O)[nH]c1=O [P4] ({Acetyl(thymin-1-yl)}-[Sar]L[Sar]F[Sar]A-NH2) | – | – | – | ≤ 95 | – | 80 | > 80 | – | – | 68 | > 75 | – | – | > 90 | > 90 | > 90 | > 90 |
| Cc1cn(CC(=O)N[C@@H](CCCCN)C(=O)N(C)CC(=O)N[C@H](C(=O)N(C)CC(=O)N[C@@H](Cc2ccccc2)C(=O)N(C)CC(N)=O)C(C)C)c(=O)[nH]c1=O [P5] ({Acetyl(thymin-1-yl)}-K[Sar]V[Sar]F[Sar]-NH2) | – | – | – | ≤ 95 | – | 80 | > 80 | – | – | 75 | > 75 | – | – | > 90 | > 90 | > 90 | > 90 |
